Results taken from patent US20130224110A1, “USE OF ADENOSINE RECEPTOR SIGNALING TO MODULATE PERMEABILITY OF BLOOD-BRAIN BARRIER” (CORNELL UNIVERSITY, priority 2010, published 2013).

Legend:
[1] = test system: Bend.3 cells; assay: Tight junction molecule staining (ZO-1, Claudin-5, Occludin); assay type: cell-based, mouse; details: 1 μM, 1 h
Protocol: Bend.3 cells grown on collagen coated coverslips were incubated with DMSO vehicle, NECA (1 μM), or Lexiscan (1 μM) for 1 h. Cells were washed with PBS, fixed with 4% paraformaldehyde, and permeabilized with 0.5% Triton-X in PBS. Cells were blocked with PBS/BSA/goat serum and then stained with antibodies (Invitrogen) against either ZO-1 (1A12), Claudin-5 (34-1600), or Occludin (3F10). Following a wash step, cells were incubated with either goat anti-rabbit IgTexas Red-X or goat anti-mouse IgCy5 (Invitrogen). Cover slips were washed and mounted on slides with ProlongGold containing DAPI. Images were obtained on a Zeiss Axio Imager M1 fluorescent microscope.

[2] = test system: Bend.3 cells; assay: Albumin uptake assay; assay type: cell-based, mouse; details: BECs, 1 μM, 30 minutes, vs media and vehicle
Protocol: Bend.3 cells grown on collagen coated coverslips were incubated with albumin-alexafluor 594 (50 mg/ml) (Invitrogen) and either media alone, DMSO vehicle, NECA (1 μM), or Lexiscan (1 μM) for 30 minutes. Albumin uptake was visualized (albumin=red) utilizing the Zeiss Axio Imager M1 fluorescent microscope. Total albumin fluorescence was recorded using Zeiss Axio Vision software, and measured utilizing Image-J software.

[3] = test system: CD4+ lymphocytes in the brain and spinal cord; assay: CD4+ lymphocyte infiltration of brain and spinal cord after EAE induction (immunohistochemistry); assay type: in vivo; details: wild type mice, day 15 post-EAE induction, vs DMSO
Protocol: Anesthetized mice were perfused with PBS, and brains, spleens, and spinal cords were isolated and snap frozen in Tissue Tek-OCT medium. Five μm sections (brains in a sagittal orientation) were affixed to Supefrost/Plus slides (Fisher), fixed in acetone, and stored at −80° C. For immunostaining, slides were thawed and treated with 0.03% H2O2 in PBS to block endogenous peroxidase, blocked with Casein (Vector) in normal goat serum (Zymed), and then incubated with anti-CD45 (YW62.3), anti-CD4 (RM4-5), or anti-ICAM-1 (3E2). Slides were incubated with biotinylated goat anti-rat Ig (Jackson ImmunoResearch) and streptavidin-HRP (Zymed) and developed with an AEC (Red) substrate kit (Zymed) and a hematoxylin counterstain. […]
As CD73 catalyzes the breakdown of AMP to adenosine and ARs are expressed in the CNS (Tsutsui et al., “A1 Adenosine Receptor Upregulation and Activation Attenuates Neuroinflammation and Demyelination in a Model of Multiple Sclerosis,” J. Neurosci. 24:1521-1529 (2004)); Rosi et al., The Influence of Brain Inflammation Upon Neuronal Adenosine A2B Receptors,” J. Neurochem. 86:220-227 (2003), which are hereby incorporated by reference in their entirety), it was next determined if AR signaling is important during EAE progression. […] Since CD73 is highly expressed on the choroid plexus (FIG. 6C), it was next determined if ARs are also expressed on the choroid plexus. […]

Row | SMILES | ZO-1 and claudin-5 expression [1] | occludin expression [1] | rate of fluorescently-labeled albumin uptake [2] | frequency of CD4+ lymphocytes in the brain and spinal cord [3]
1 | CCNC(=O)[C@H]1O[C@@H](n2cnc3c(N)ncnc32)[C@H](O)[C@@H]1O [NECA, 5′-N-ethylcarboxamido adenosine] | discreet alterations in ZO-1 and claudin-5 | severely diminished occludin expression | did not affect the rate of fluorescently-labeled albumin uptake | 
2 | Nc1nc2c(cnn2CCc2ccccc2)c2nc(-c3ccco3)nn12 [SCH58261, 2-(2-Furanyl)-7-(2-phenylethyl)-7H-pyrazolo[4,3-e][1,2,4]triazolo[1,5-c]pyrimidin-5-amine] |  |  |  | significantly lower frequency of CD4^+ lymphocytes in the brain and spinal cord
